Laboratory results as given in ChEMBL document CHEMBL3108688, “4-Thiazolidinones: the advances continue…” (Eur J Med Chem, 2014).
In brackets after ≈: the same amount, converted by molar mass.

Tested on: Tacaribe virus
Assay: Antiviral activity against Tacaribe virus TRVL11573
Format: functional, organism-based
Conditions: Mammarenavirus tacaribeense

`COc1ccc(NC(=O)CC2SC(N3N=C(c4ccccc4)CC3c3ccc(OC)cc3)=NC2=O)cc1` (stereo unspecified) gave an EC50 of 0.71 µg/mL (≈ 1.38 µM).
